Assay results as given in patent US12263172B2, “Toll-like receptor agonists for use in the treatment of hepatitis b” (priority 2019, dated 2025).
Like-named read-outs stand apart in the source and are kept apart here.

Tests used:
[1] = Phase 1 multiple dose pharmacokinetics in healthy adults; format: in vivo, human
Protocol: Following a single dose of Compound 4, intensive blood samples were collected over the first 24 hours, samples were then collected daily through Day 7, and weekly samples were collected through Day 35. Plasma concentrations of Compound 4 were evaluated using a validated liquid chromatography with tandem mass spectrometry method; the lower limit of quantification was 1 pg/mL. PK parameters were estimated using non-compartmental analysis (WinNonlin®, Certara, Princeton, NJ, USA). Descriptive statistics were used to summarize plasma concentrations and derived PK parameters of Compound 4. The impact of food on PK parameters was analyzed using geometric least square mean point estimates (mixed-effects model on log-transformed values with treatment as fixed effect and subject as a random effect).
Compound 4 was administered every week for 4 weeks in fasted condition at a dose of 1.25 mg.

[2] = BCS classification; format: physicochemical; settings: high solubility, low permeability
Protocol: AUC48h was approximately 17% (95% Cl: 65.89-105.71%) lower in fed condition compared with fasted. These differences are aligned with BCS Class 3 (high solubility, low permeability) compound properties.

[3] = test system: cytokines and ISGs (ISG15, MX1, OAS1); assay: Phase 1 single oral dose pharmacodynamics (serum cytokines, whole blood ISGs) in healthy adults; format: in vivo, human
Protocol: IFN-α was assessed by an enzyme-linked immunosorbent assay; 13 other cytokines (granulocyte colony stimulating factor [GCSF], granulocyte macrophage colony stimulating factor [GMCSF], IFN-γ, IFN-γ-induced protein 10 [IP-10], interleukin [IL] 1β, IL-1 receptor antagonist [IL-1 RA], IL-10, IL-12 subunit P40, IL-6, IL-8, macrophage inflammatory protein 1β [MIP-1β], monocyte chemotactic protein 1 [MCP-1], and tumour necrosis factor [TNF]) were analysed by the appropriate Luminex assays. ISG expression analysis was conducted for three genes, ISG15, MX1 and OAS1 using quantitative polymerase chain reaction. Descriptive statistics were used to summarise PD parameters over time, and relative fold-changes from baseline values were calculated. Serum levels of IFN-α were measured by ELISA. Serum levels of IP-10, IFN-γ, TNF-α, IL-12 (subunit P40), IL-6, IL-1β, IL-1RA, IL-18, MCP-1, MIP-1β, G-CSF, GM-CSF, IL-10, IL-15 were measured by Luminex xMAP technology. The LLOQ for IFN-α was determined at 12.5 pg/mL and at 25 pg/mL for all other cytokines measured. Fold changes for each of the cytokines were calculated compared to predose values or LLOQ-1 values if predose values were below LLOQ. IFN-stimulated gene (ISG) expression analysis was conducted for 3 genes, ISG15, MX1, and OAS1, using quantitative polymerase chain reaction (qPCR) on collected whole blood samples. For the ISGs, relative fold changes from baseline were calculated according to the delta delta Cycle threshold (Ct) method (2^[Delta Delta Ct]). Assessments were done for Part 1 predose and postdose: 1.5 hours, 6 hours, 12 hours (Day 1), 24 hours (day 2), 48 hours (Day 3), 96 hours (Day 5), follow-up Week 2. For the Part 2, assessments were done predose and post the first and fourth dose: 2 hours, 4 hours, 12 hours, 24 hours, 48 hours, 96 hours and one week follow-up; and post the second and third doses: 12 hours and 48 hours.

[4] = after 4 weeks of qw dosing, 1.25 mg
[5] = single dose 0.6 mg, 12 hours post dosing

CCCCOc1nc(N)c2[nH]cc(Cc3ccc(CN4CCCC4)cc3)c2n1 [Compound 4]
excreted as unchanged drug in urine within the first 24 hours after the first and second dosing ([1]; 1.25 mg qw fasted): Less than 0.22%
terminal elimination, median value ([1]; 1.25 mg qw fasted): 244 h
mean accumulation ratio for AUC24h [1, 4]: 1.83
mean accumulation ratio for AUC72h [1, 4]: 2.27
mean accumulation ratio for AUCT [1, 4]: 2.75
Cmax ([1]; human, plasma, oral, 1.25 mg, 1.25 mg qw fasted, SD 67.2, read-out: mean Cmax after the fourth dose): 0.235 ng/mL
Cmax ([1]; human, plasma, oral, 1.25 mg, 1.25 mg qw fasted, SD 88.4, read-out: mean Cmax after the first dose): 0.186 ng/mL
AUC ([1]; human, plasma, oral, 1.25 mg, 1.25 mg qw fasted, SD 591, read-out: mean AUC24h after the fourth dose): 1.76 ng·h/mL
AUC ([1]; human, plasma, oral, 1.25 mg, 1.25 mg qw fasted, SD 874, read-out: mean AUC24h after the first dose): 1.21 ng·h/mL
concentration at 21 days ([1]; human, plasma, oral, 1.25 mg qw fasted, read-out: mean Ctrough before the fourth dose): 0.0408 ± 0.0489 ng/mL
concentration at 7 days ([1]; human, plasma, oral, 1.25 mg qw fasted, read-out: mean Ctrough before the second dose): 0.00717 ± 0.0032 ng/mL
BCS class [2]: BCS Class 3
number of the 14 cytokines evaluated that increased ≥2-fold versus baseline (IFN-α, IP-10, IL-1 RA, MCP-1, IL-6) ([3]; single dose): 5
time within which cytokine levels and ISG expression peaked ([3]; single dose): 12 to 24 h
induction of ISGs or cytokines ([3]; single dose 0.2 mg): No relevant induction of ISGs or cytokines
participants with ≥2 relative fold increase in ISG15 expression from baseline in the first 96 hours ([3]; single dose 0.2 mg fasted): 0 n (%)
participants with ≥2 relative fold increase in MX1 expression from baseline in the first 96 hours ([3]; single dose 0.2 mg fasted): 1 (20.0%) n (%)
participants with ≥2 relative fold increase in OAS1 expression from baseline in the first 96 hours ([3]; single dose 0.2 mg fasted): 0 n (%)
subjects with ≥2-fold change from baseline in GCSF within 96 hours ([3]; single dose 0.2 mg fasted): 0 n (%)
subjects with ≥2-fold change from baseline in GMCSF within 96 hours ([3]; single dose 0.2 mg fasted): 0 n (%)
subjects with ≥2-fold change from baseline in IFN-α within 96 hours ([3]; single dose 0.2 mg fasted): 0 n (%)
subjects with ≥2-fold change from baseline in IFN-γ within 96 hours ([3]; single dose 0.2 mg fasted): 0 n (%)
subjects with ≥2-fold change from baseline in IL-1RA within 96 hours ([3]; single dose 0.2 mg fasted): 0 n (%)
subjects with ≥2-fold change from baseline in IL-1β within 96 hours ([3]; single dose 0.2 mg fasted): 0 n (%)
subjects with ≥2-fold change from baseline in IL-6 within 96 hours ([3]; single dose 0.2 mg fasted): 1 (20.0%) n (%)
subjects with ≥2-fold change from baseline in IL-8 within 96 hours ([3]; single dose 0.2 mg fasted): 0 n (%)
subjects with ≥2-fold change from baseline in IL-10 within 96 hours ([3]; single dose 0.2 mg fasted): 0 n (%)
subjects with ≥2-fold change from baseline in IL-12 subunit P40 within 96 hours ([3]; single dose 0.2 mg fasted): 0 n (%)
subjects with ≥2-fold change from baseline in IP-10 within 96 hours ([3]; single dose 0.2 mg fasted): 0 n (%)
subjects with ≥2-fold change from baseline in MCP-1 within 96 hours ([3]; single dose 0.2 mg fasted): 0 n (%)
subjects with ≥2-fold change from baseline in MIP-1β within 96 hours ([3]; single dose 0.2 mg fasted): 0 n (%)
subjects with ≥2-fold change from baseline in TNF-α within 96 hours ([3]; single dose 0.2 mg fasted): 0 n (%)
treated subjects with ≥2-fold increase from baseline for all 3 ISGs within the first 96 hours ([3]; single dose 0.6 mg): Five of 6
participants with ≥2 relative fold increase in ISG15 expression from baseline in the first 96 hours ([3]; single dose 0.6 mg fasted): 5 (83.3%) n (%)
participants with ≥2 relative fold increase in MX1 expression from baseline in the first 96 hours ([3]; single dose 0.6 mg fasted): 5 (83.3%) n (%)
participants with ≥2 relative fold increase in OAS1 expression from baseline in the first 96 hours ([3]; single dose 0.6 mg fasted): 5 (83.3%) n (%)
subjects with ≥2-fold change from baseline in GCSF within 96 hours ([3]; single dose 0.6 mg fasted): 1 (16.7%) n (%)
subjects with ≥2-fold change from baseline in GMCSF within 96 hours ([3]; single dose 0.6 mg fasted): 0 n (%)
subjects with ≥2-fold change from baseline in IFN-α within 96 hours ([3]; single dose 0.6 mg fasted): 0 n (%)
subjects with ≥2-fold change from baseline in IFN-γ within 96 hours ([3]; single dose 0.6 mg fasted): 0 n (%)
subjects with ≥2-fold change from baseline in IL-1RA within 96 hours ([3]; single dose 0.6 mg fasted): 0 n (%)
subjects with ≥2-fold change from baseline in IL-1β within 96 hours ([3]; single dose 0.6 mg fasted): 0 n (%)
subjects with ≥2-fold change from baseline in IL-6 within 96 hours ([3]; single dose 0.6 mg fasted): 0 n (%)
subjects with ≥2-fold change from baseline in IL-8 within 96 hours ([3]; single dose 0.6 mg fasted): 0 n (%)
subjects with ≥2-fold change from baseline in IL-10 within 96 hours ([3]; single dose 0.6 mg fasted): 0 n (%)
subjects with ≥2-fold change from baseline in IL-12 subunit P40 within 96 hours ([3]; single dose 0.6 mg fasted): 0 n (%)
subjects with ≥2-fold change from baseline in MIP-1β within 96 hours ([3]; single dose 0.6 mg fasted): 0 n (%)
subjects with ≥2-fold change from baseline in TNF-α within 96 hours ([3]; single dose 0.6 mg fasted): 0 n (%)
maximum concentration of IP-10 [3, 5]: 1,322.0 pg/mL
maximum concentration of MCP-1 [3, 5]: 878.2 pg/mL
increased expression of cytokines and ISGs, fed versus fasted state ([3]; single dose 1.25 mg): less frequently observed in the 1.25 mg fed state than in the fasted state
treated subjects with ≥2-fold increase from baseline for all 3 ISGs within the first 96 hours ([3]; single dose 1.25 mg): all treated subjects
participants with ≥2 relative fold increase in ISG15 expression from baseline in the first 96 hours ([3]; single dose 1.25 mg fasted): 8 (100%) n (%)
participants with ≥2 relative fold increase in MX1 expression from baseline in the first 96 hours ([3]; single dose 1.25 mg fasted): 8 (100%) n (%)
participants with ≥2 relative fold increase in OAS1 expression from baseline in the first 96 hours ([3]; single dose 1.25 mg fasted): 8 (100%) n (%)
subjects with IFN-α levels 100 pg/mL coinciding with flu-like AEs and low lymphocytes ([3]; single dose 1.25 mg fasted): 3 of 8
subjects with ≥2-fold change from baseline in GCSF within 96 hours ([3]; single dose 1.25 mg fasted): 1 (12.5%) n (%)
subjects with ≥2-fold change from baseline in GMCSF within 96 hours ([3]; single dose 1.25 mg fasted): 0 n (%)
subjects with ≥2-fold change from baseline in IFN-γ within 96 hours ([3]; single dose 1.25 mg fasted): 2 (25.0%) n (%)
subjects with ≥2-fold change from baseline in IL-1β within 96 hours ([3]; single dose 1.25 mg fasted): 0 n (%)
subjects with ≥2-fold change from baseline in IL-6 within 96 hours ([3]; single dose 1.25 mg fasted): 1 (12.5%) n (%)
subjects with ≥2-fold change from baseline in IL-8 within 96 hours ([3]; single dose 1.25 mg fasted): 0 n (%)
subjects with ≥2-fold change from baseline in IL-10 within 96 hours ([3]; single dose 1.25 mg fasted): 0 n (%)
subjects with ≥2-fold change from baseline in IL-12 subunit P40 within 96 hours ([3]; single dose 1.25 mg fasted): 0 n (%)
subjects with ≥2-fold change from baseline in MIP-1β within 96 hours ([3]; single dose 1.25 mg fasted): 0 n (%)
subjects with ≥2-fold change from baseline in TNF-α within 96 hours ([3]; single dose 1.25 mg fasted): 0 n (%)
treated females with 2-fold increase in IFN-α ([3]; single dose 1.25 mg fasted): 2 of the 3
treated male subjects with 2-fold increase in IFN-α ([3]; single dose 1.25 mg fasted): 2 out of 5
IFNα levels in subjects with increase, range ([3]; single dose 1.25 mg fasted, 4/8 subjects): 63 to 533 pg/mL
increase in IFN-α in the fed state among the 3 subjects with increase in the fasted state ([3]; single dose 1.25 mg fed): none showed an increase in IFN-α in the fed state
treated male subjects with ≥2-fold increase in IFN-α ([3]; single dose 1.8 mg): 1 of the 5
treated subjects with ≥2-fold increase from baseline for all 3 ISGs within the first 96 hours ([3]; single dose 1.8 mg): all treated subjects
participants with ≥2 relative fold increase in ISG15 expression from baseline in the first 96 hours ([3]; single dose 1.8 mg fasted): 6 (100%) n (%)
participants with ≥2 relative fold increase in MX1 expression from baseline in the first 96 hours ([3]; single dose 1.8 mg fasted): 6 (100%) n (%)
participants with ≥2 relative fold increase in OAS1 expression from baseline in the first 96 hours ([3]; single dose 1.8 mg fasted): 6 (100%) n (%)
subjects with IFN-α levels 100 pg/mL coinciding with flu-like AEs and low lymphocytes ([3]; single dose 1.8 mg fasted): 2 of 6
subjects with ≥2-fold change from baseline in GCSF within 96 hours ([3]; single dose 1.8 mg fasted): 0 n (%)
subjects with ≥2-fold change from baseline in GMCSF within 96 hours ([3]; single dose 1.8 mg fasted): 0 n (%)
subjects with ≥2-fold change from baseline in IFN-γ within 96 hours ([3]; single dose 1.8 mg fasted): 2 (33.3%) n (%)
subjects with ≥2-fold change from baseline in IL-1β within 96 hours ([3]; single dose 1.8 mg fasted): 0 n (%)
subjects with ≥2-fold change from baseline in IL-6 within 96 hours ([3]; single dose 1.8 mg fasted): 1 (16.7%) n (%)
subjects with ≥2-fold change from baseline in IL-8 within 96 hours ([3]; single dose 1.8 mg fasted): 0 n (%)
subjects with ≥2-fold change from baseline in IL-10 within 96 hours ([3]; single dose 1.8 mg fasted): 0 n (%)
subjects with ≥2-fold change from baseline in IL-12 subunit P40 within 96 hours ([3]; single dose 1.8 mg fasted): 0 n (%)
subjects with ≥2-fold change from baseline in MIP-1β within 96 hours ([3]; single dose 1.8 mg fasted): 0 n (%)
subjects with ≥2-fold change from baseline in TNF-α within 96 hours ([3]; single dose 1.8 mg fasted): 0 n (%)
time within which cytokine levels and ISG expression returned to baseline ([3]; single dose, post-administration): 48 to 96 h
time of return to baseline after dosing ([3]; two highest fasted dose groups): approximately 96 hours
